As a reminder, the IC50 is the concentration that inhibits the measured activity by half.

This is an account of results in patent US12037345B2, “Heterobicyclic compounds for inhibiting the activity of SHP2” (TAIHO PHARMACEUTICAL CO., LTD., priority 2018, dated 2024).

One experiment concerns the target SHP2 (Homo sapiens (Human), UniProt Q06124). Kind of experiment: SHP2 Biochemical Assay (DiFMUP conversion, pIRS1-activated). The essentials: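 Rates of DiFMU formation were followed 30 min at ex 360/em 450 nm, with 50 μM DiFMUP, 10 pM SHP2 and pIRS1 peptide ([…]) after 30 min compound pre-incubation at pH 7.0 Bis-Tris propane. Four-parameter logistic IC50s in singlicate; repeat runs averaged.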

Experiment [1] relates to pERK (phospho-p44/42 MAPK Thr202/Tyr204) in HCC827 cells. As to the kind of experiment: Cellular pERK Inhibition Assay, Method B (PathScan phospho-p44/42 MAPK sandwich ELISA). To be noted: for IC50: Homo sapiens. It counts as cell-based. Here is the method: Cellular pERK Inhibition Assay
HCC827 cells (ATCC, Manassas, USA) were seeded into 96-well plates at a density of 1×10^5 cells/well in RPMI medium supplemented with 10% FBS and incubated 24h. Compounds were diluted first in DMSO and then into serum-free medium, before being added to cells in triplicate to give a final concentration of 0.1% DMSO. Plates were incubated at 37° C. for the indicated time in a humidified atmosphere of 5% CO2 in air.
Following compound treatment, medium was removed and cells were lysed by adding 50 μL of lysis buffer (Cell Signalling Technology, Beverly, USA) to each well. Plates were then incubated at room temperature for 25 minutes with shaking. pERK levels were measured in lysates using the PathScan(Registered Trademark) phospho-p44/42 MAPK (Thr202/Tyr204) sandwich ELISA (Cell Signalling Technology, Beverly, USA) as per kit instructions. Briefly, 50 μL of cell lysate was added to 50 μL of ELISA sample diluent in a 96-well ELISA plate and incubated overnight at 4° C. Following washing, 100 μL of detection antibody was added per well and the plates incubated for 1 hour at 37° C. Plates were washed again and incubated at 37° C. for 30 minutes with 100 μl of HRP-linked secondary antibody per well. After final washing, 100 μL per well of TMB substrate was added and plates incubated at 37° C. to develop colour. Colour development was stopped by the addition of 100 μL per well of stop solution. Plates were read at 450 nm on a SpectraMax Gemini reader (Molecular Devices, Uckfield, UK).
The average signal from blank wells (no cells added) was subtracted from the signals from each sample well. Levels of pERK were then expressed as “percent of control”, using DMSO treated samples as control. Dose response curves were generated using GraphPad Prism Version 6 (GraphPad Software, La Jolla, USA) and fitted using the four parameter logistic curve fit.
On the technique in general: ELISA stands for enzyme-linked immunosorbent assay.

The mark [2] stands for this setting: Table 20, read-out: pERK (IC50, μM) Method B.
Where [3] appears, read: Table 19, head prints unit as "-M".
[4] abbreviates: Table 19, head prints unit as "-M", read-out: pERK (IC50) Method B.

The structures appear in SMILES notation. Structures can show the parent of a compound that is named as a salt. Where two headings read alike, the source gives them in different places.

SHP2, sequence (Q06124 whole entry): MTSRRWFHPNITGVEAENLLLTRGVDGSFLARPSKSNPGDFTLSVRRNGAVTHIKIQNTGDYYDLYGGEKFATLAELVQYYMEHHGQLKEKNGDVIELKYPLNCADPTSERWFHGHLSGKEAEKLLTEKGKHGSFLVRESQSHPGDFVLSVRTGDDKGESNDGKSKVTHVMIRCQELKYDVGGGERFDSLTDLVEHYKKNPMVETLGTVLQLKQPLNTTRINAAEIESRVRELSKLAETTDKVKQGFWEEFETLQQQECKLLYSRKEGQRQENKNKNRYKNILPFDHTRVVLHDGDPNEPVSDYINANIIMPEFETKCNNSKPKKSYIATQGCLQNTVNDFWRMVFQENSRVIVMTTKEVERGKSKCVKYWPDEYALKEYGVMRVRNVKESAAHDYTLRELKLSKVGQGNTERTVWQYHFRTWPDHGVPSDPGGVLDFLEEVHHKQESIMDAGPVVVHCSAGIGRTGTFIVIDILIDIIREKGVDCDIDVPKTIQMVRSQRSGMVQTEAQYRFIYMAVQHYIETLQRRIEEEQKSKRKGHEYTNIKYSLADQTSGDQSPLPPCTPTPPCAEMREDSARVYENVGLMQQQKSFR

`CCn1cc2c(Cl)c(-c3c[nH]c4nc(N5[C@H]6CC[C@@H]5[C@@H](F)[C@@H](N)C6)n(C)c(=O)c34)ccc2n1` [Example 197, 2-[(1R,2S,3S,5S)-3-amino-2-fluoro-8-azabicyclo[3.2.1]octan-8-yl]-5-(4-chloro-2-ethyl-2H-indazol-5-yl)-3-methyl-3H,4H,7H-pyrrolo[2,3-d]pyrimidin-4-one hydrochloride]: the results for the IC50 (at SHP2 (Table 20); in experiment [1] (setting [2])) were 12 nM and 0.032 µM, respectively.

Consider `CCn1cc2c(F)c(-c3c[nH]c4nc(N5CCC6(CC5)COC[C@H]6N)n(C)c(=O)c34)ccc2n1` [Example 181, 2-[(4S)-4-amino-2-oxa-8-azaspiro[4.5]decan-8-yl]-5-(2-ethyl-4-fluoro-2H-indazol-5-yl)-3-methyl-3H,4H,7H-pyrrolo[2,3-d]pyrimidin-4-one hydrochloride], for which the IC50 came to 23 nM against SHP2 (Table 20) and 0.21 µM in experiment [1] (setting [2]).

The compound `Cn1cc2c(Cl)c(-c3n[nH]c4nc(N5C6CCC5CNC6)n(C)c(=O)c34)ccc2n1` [Example 137, 3-(4-chloro-2-methyl-2H-indazol-5-yl)-6-{3,8-diazabicyclo[3.2.1]octan-8-yl}-5-methyl-1H,4H,5H-pyrazolo[3,4-d]pyrimidin-4-one] gave an IC50 against SHP2 (setting [3]) of 59 nM. In experiment [1] (Table 19, at 3.0 μM), the “pERK Method B, % at given concentration” value was found to be 45% at 3.0 μM.

As to `CCn1cc2ccc(-c3c[nH]c4nc(N5CCC6(CC5)COC[C@H]6N)n(C)c(=O)c34)c(F)c2n1` [Example 184, 2-[(4S)-4-amino-2-oxa-8-azaspiro[4.5]decan-8-yl]-5-(2-ethyl-7-fluoro-2H-indazol-6-yl)-3-methyl-3H,4H,7H-pyrrolo[2,3-d]pyrimidin-4-one hydrochloride], the results for the IC50 (on SHP2 (Table 20); in experiment [1] (setting [2])) were 70 nM and 1.1 µM, respectively.

Take `C[C@@H]1OCC2(CCN(c3nc4[nH]cc(-c5cc(F)c6nn(C)cc6c5Cl)c4c(=O)n3C)CC2)[C@@H]1N` [Example 194, 2-[(3S,4S)-4-amino-3-methyl-2-oxa-8-azaspiro[4.5]decan-8-yl]-5-(4-chloro-7-fluoro-2-methyl-2H-indazol-5-yl)-3-methyl-3H,4H,7H-pyrrolo[2,3-d]pyrimidin-4-one hydrochloride]: the IC50 at SHP2 (Table 20) came out at 16 nM; in experiment [1] (setting [2]) it was 0.043 µM.

Turning to `Cn1nc2ccc(-c3n[nH]c4nc(N5CC6COCC(C5)N6)n(C)c(=O)c34)c(Cl)c2c1Cl` [Example 146, 3-(3,4-dichloro-2-methyl-2H-indazol-5-yl)-5-methyl-6-{3-oxa-7,9-diazabicyclo[3.3.1]nonan-7-yl}-1H,4H,5H-pyrazolo[3,4-d]pyrimidin-4-one hydrochloride salt], the IC50 worked out at 57 nM at SHP2 (setting [3]) and 3.8 µM in experiment [1] (setting [4]).

As for `C[C@@H]1OCC2(CCN(c3nc4[nH]nc(-c5ccc6nn(C)cc6c5Cl)c4c(=O)n3C)CC2)[C@@H]1N` [Example 143, 6-[(3S,4S)-4-amino-3-methyl-2-oxa-8-azaspiro[4.5]decan-8-yl]-3-(4-chloro-2-methyl-2H-indazol-5-yl)-5-methyl-1H,4H,5H-pyrazolo[3,4-d]pyrimidin-4-one], the IC50 against SHP2 (setting [3]) was found to be 22 nM; in experiment [1] (setting [4]), 0.081 µM.

For `Cn1cc2c(Cl)c(-c3n[nH]c4nc(N5CCC6(CC5)C[C@H](O)C[C@H]6N)n(C)c(=O)c34)ccc2n1` [Example 138, 6-[(1R,3S)-1-amino-3-hydroxy-8-azaspiro[4.5]decan-8-yl]-3-(4-chloro-2-methyl-2H-indazol-5-yl)-5-methyl-1H,4H,5H-pyrazolo[3,4-d]pyrimidin-4-one], the IC50 is 19 nM against SHP2 (setting [3]) and 1.6 µM in experiment [1] (setting [4]).

`Cn1c(N2CC[C@H](N)[C@H](F)C2)nc2[nH]cc(-c3ccc4ncsc4c3Cl)c2c1=O` [Example 187, 2-[(3R,4S)-4-amino-3-fluoropiperidin-1-yl]-5-(7-chloro-1,3-benzothiazol-6-yl)-3-methyl-3H,4H,7H-pyrrolo[2,3-d]pyrimidin-4-one hydrochloride]: the IC50 was 51 nM against SHP2 (Table 20) and 0.8 µM in experiment [1] (setting [2]).

As for `CNc1ccc2ccc(-c3c[nH]c4nc(N5[C@H]6CC[C@@H]5[C@H](N)C6)n(C)c(=O)c34)c(Cl)c2n1` [Example 199, 2-[(1R,2R,4S)-2-amino-7-azabicyclo[2.2.1]heptan-7-yl]-5-[8-chloro-2-(methylamino)quinolin-7-yl]-3-methyl-3H,4H,7H-pyrrolo[2,3-d]pyrimidin-4-one hydrochloride], the results for the IC50 (at SHP2 (Table 20); in experiment [1] (setting [2])) were 14 nM and 0.11 µM, respectively.

On to `Cn1cc2c(Cl)c(-c3n[nH]c4nc(N5CCC6(CC5)COC[C@H]6N)n(C)c(=O)c34)ccc2n1` [Example 139, 6-[(4S)-4-amino-2-oxa-8-azaspiro[4.5]decan-8-yl]-3-(4-chloro-2-methyl-2H-indazol-5-yl)-5-methyl-1H,4H,5H-pyrazolo[3,4-d]pyrimidin-4-one], for which the results for the IC50 (against SHP2 (setting [3]); in experiment [1] (setting [4])) were 20 nM and 0.097 µM, respectively.

On to `CCn1cc2ccc(-c3c[nH]c4nc(N5CCC6(CC5)COC[C@H]6N)n(C)c(=O)c34)c(Cl)c2n1` [Example 182, 2-[(4S)-4-amino-2-oxa-8-azaspiro[4.5]decan-8-yl]-5-(7-chloro-2-ethyl-2H-indazol-6-yl)-3-methyl-3H,4H,7H-pyrrolo[2,3-d]pyrimidin-4-one hydrochloride], for which the IC50 was 36 nM against SHP2 (Table 20) and 2.2 µM in experiment [1] (setting [2]).

With `CCn1cc2c(Cl)c(-c3c[nH]c4nc(N5CCCNCC5)n(C)c(=O)c34)ccc2n1` [Example 151, 5-(4-chloro-2-ethyl-2H-indazol-5-yl)-2-(1,4-diazepan-1-yl)-3-methyl-3H,4H,7H-pyrrolo[2,3-d]pyrimidin-4-one hydrochloride], the IC50 at SHP2 (setting [3]) was 23 nM; in experiment [1] (setting [4]), 0.52 µM.

As to `Cn1cc2c(Cl)c(-c3c[nH]c4nc(N5[C@H]6CC[C@@H]5[C@](C)(N)C6)n(C)c(=O)c34)ccc2n1` [Example 195, 2-[(endo)-2-amino-2-methyl-7-azabicyclo[2.2.1]heptan-7-yl]-5-(4-chloro-2-methyl-2H-indazol-5-yl)-3-methyl-3H,4H,7H-pyrrolo[2,3-d]pyrimidin-4-one hydrochloride], the IC50 on SHP2 (Table 20) was found to be 16 nM; in experiment [1] (setting [2]), 0.045 µM.

In the case of `C[C@@H]1OCC2(CCN(c3nc4[nH]nc(-c5ccc6nn(C)c(Cl)c6c5Cl)c4c(=O)n3C)CC2)[C@@H]1N` [Example 147, 6-[(3S,4S)-4-amino-3-methyl-2-oxa-8-azaspiro[4.5]decan-8-yl]-3-(3,4-dichloro-2-methyl-2H-indazol-5-yl)-5-methyl-1H,4H,5H-pyrazolo[3,4-d]pyrimidin-4-one hydrochloride salt], the IC50 was determined as 12 nM against SHP2 (setting [3]) and 0.034 µM in experiment [1] (setting [4]).

Regarding `CCn1cc2c(Cl)c(-c3c[nH]c4nc(N5CC6CNC(C6)C5)n(C)c(=O)c34)ccc2n1` (single isomer, unassigned) [Example 190, 5-(4-chloro-2-ethyl-2H-indazol-5-yl)-2-{3,6-diazabicyclo[3.2.1]octan-3-yl}-3-methyl-3H,4H,7H-pyrrolo[2,3-d]pyrimidin-4-one hydrochloride], the IC50 at SHP2 (Table 20) was 45 nM; in experiment [1] (setting [2]) it was 3.3 µM.

On to `CCn1cc2c(Cl)c(-c3c[nH]c4nc(N5CCC6(CC5)CO[C@@H](C)[C@H]6N)n(C)c(=O)c34)ccc2n1` [Example 150, 2-[(3S,4S)-4-amino-3-methyl-2-oxa-8-azaspiro[4.5]decan-8-yl]-5-(4-chloro-2-ethyl-2H-indazol-5-yl)-3-methyl-3H,4H,7H-pyrrolo[2,3-d]pyrimidin-4-one], for which the IC50 against SHP2 (setting [3]) was determined as 12 nM; in experiment [1] (setting [4]), 0.013 µM.
